pIC50: −log10 of the molar value.
Tests used:
Type in all cases: cell-based
AR = target: T1, AR (Homo sapiens, UniProt P10275); test: Degradation of AR in VCaP cells; details: VCaP cells; for Dmax: VCaP
T1 construct: Degradation of AR; Cellular potency; host or cells: VCaP cells
T1 sequence (P10275 1-920): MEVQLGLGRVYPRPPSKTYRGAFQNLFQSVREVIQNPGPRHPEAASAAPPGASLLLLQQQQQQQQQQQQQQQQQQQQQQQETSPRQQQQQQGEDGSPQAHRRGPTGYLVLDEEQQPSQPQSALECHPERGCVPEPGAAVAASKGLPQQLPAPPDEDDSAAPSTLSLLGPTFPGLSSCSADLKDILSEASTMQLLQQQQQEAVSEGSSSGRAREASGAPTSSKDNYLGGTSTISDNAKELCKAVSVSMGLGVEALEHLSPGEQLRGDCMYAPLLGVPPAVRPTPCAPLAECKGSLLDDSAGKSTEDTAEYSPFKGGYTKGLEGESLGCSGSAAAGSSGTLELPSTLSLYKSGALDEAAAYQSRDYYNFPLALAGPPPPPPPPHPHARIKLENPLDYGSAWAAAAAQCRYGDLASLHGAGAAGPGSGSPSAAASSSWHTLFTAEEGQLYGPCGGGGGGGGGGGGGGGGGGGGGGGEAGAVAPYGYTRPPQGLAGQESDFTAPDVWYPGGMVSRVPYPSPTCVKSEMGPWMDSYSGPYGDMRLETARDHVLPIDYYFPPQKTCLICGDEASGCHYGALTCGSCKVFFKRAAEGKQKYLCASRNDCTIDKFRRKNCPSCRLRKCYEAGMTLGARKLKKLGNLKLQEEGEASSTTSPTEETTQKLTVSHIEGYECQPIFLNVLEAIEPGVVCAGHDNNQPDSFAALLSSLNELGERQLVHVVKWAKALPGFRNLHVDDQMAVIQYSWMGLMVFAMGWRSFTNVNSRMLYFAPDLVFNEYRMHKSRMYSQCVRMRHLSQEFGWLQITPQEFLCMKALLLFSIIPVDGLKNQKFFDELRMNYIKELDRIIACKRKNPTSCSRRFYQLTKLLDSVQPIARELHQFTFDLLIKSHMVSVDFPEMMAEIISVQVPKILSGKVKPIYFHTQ
Method: (§1) Biological Assays. LNCaP and VCaP cells used were purchased from American Type Culture Collection (ATCC). LNCaP were grown in RPMI 1640 (Invitrogen) and VCaP cells were grown in DMEM with Glutamax (Invitrogen). All of the cells were supplemented with 10% fetal bovine serum (Invitrogen) at 37° C. in a humidified 5% CO2 incubator.

LNCaP cells = test: Cellular potency (IC50) in LNCaP cells; details: Homo sapiens, LNCaP
Method: as §1

VCaP cells = test: Cellular potency (IC50) in VCaP cells; details: Homo sapiens, VCaP
Method: as §1

Compound	DC50 (AR) [nM]	Dmax (AR) [%]	pIC50 (LNCaP cells)	pIC50 (VCaP cells)
C[C@H]1CC2(CCN(c3ccc(C4CCN(CC5CN(c6ccc7c(c6)C(=O)N(C6CCC(=O)NC6=O)C7=O)C5)CC4)cn3)CC2)CN1c1ccc(C#N)c(Cl)c1 (stereo partly shown) [compound 43]	< 1	> 90	> 8.00	> 8.00
C[C@H]1CC2(CCN(c3ccc(C4CCN(CC5CCN(c6ccc7c(c6)C(=O)N(C6CCC(=O)NC6=O)C7=O)CC5)CC4)cn3)CC2)CN1c1ccc(C#N)c(Cl)c1 (stereo partly shown) [compound 44]	< 1	> 90	> 8.00	> 8.00
C[C@H]1CC2(CCN(c3ccc(C4CCN(CC5CN(c6ccc7c(c6)C(=O)N(C6CCC(=O)NC6=O)C7=O)C5)CC4)nc3)CC2)CN1c1ccc(C#N)c(Cl)c1 (stereo partly shown) [compound 45]	< 1	> 90	> 8.00	> 8.00
C[C@H]1CC2(CCN(c3ccc(N4CCN(CC5CN(c6ccc7c(c6)C(=O)N(C6CCC(=O)NC6=O)C7=O)C5)CC4)nn3)CC2)CN1c1ccc(C#N)c(Cl)c1 (stereo partly shown) [compound 47]	< 1	> 90	> 8.00	> 8.00
C[C@H]1CC2(CCN(c3ccc(N4CCN(CC5CCN(c6ccc7c(c6)C(=O)N(C6CCC(=O)NC6=O)C7=O)CC5)CC4)nn3)CC2)CN1c1ccc(C#N)c(Cl)c1 (stereo partly shown) [compound 48]	< 1	> 90	> 8.00	> 8.00
C[C@H]1CC2(CCN(c3cnc(N4CCN(CC5CN(c6ccc7c(c6)C(=O)N(C6CCC(=O)NC6=O)C7=O)C5)CC4)cn3)CC2)CN1c1ccc(C#N)c(Cl)c1 (stereo partly shown) [compound 49]	< 1	> 90	> 8.00	> 8.00
C[C@H]1CC2(CCN(c3cnc(N4CCN(CC5CCN(c6ccc7c(c6)C(=O)N(C6CCC(=O)NC6=O)C7=O)CC5)CC4)cn3)CC2)CN1c1ccc(C#N)c(Cl)c1 (stereo partly shown) [compound 50]	< 10	> 90	> 7.00	> 7.00
C[C@H]1CC2(CCN(c3ccc(N4CCC(CN5CCN(c6ccc7c(c6)C(=O)N(C6CCC(=O)NC6=O)C7=O)CC5)CC4)cn3)CC2)CN1c1ccc(C#N)c(Cl)c1 (stereo partly shown) [compound 51]	< 10	> 90	> 7.00	> 7.00
C[C@H]1CC2(CCN(c3ccc(N4CCC(CN5Cc6cc7c(cc6C5)C(=O)N(C5CCC(=O)NC5=O)C7=O)CC4)cn3)CC2)CN1c1ccc(C#N)c(Cl)c1 (stereo partly shown) [compound 52]	< 10	> 90	> 7.00	> 7.00
C[C@H]1CC2(CCN(c3ccc(N4CCC(CN5CCN(c6ccc7c(c6)C(=O)N(C6CCC(=O)NC6=O)C7=O)CC5)CC4)nc3)CC2)CN1c1ccc(C#N)c(Cl)c1 (stereo partly shown) [compound 53]	< 10	> 90	> 7.00	> 7.00
C[C@H]1CC2(CCN(c3ccc(N4CCC(CN5Cc6cc7c(cc6C5)C(=O)N(C5CCC(=O)NC5=O)C7=O)CC4)nc3)CC2)CN1c1ccc(C#N)c(Cl)c1 (stereo partly shown) [compound 54]	< 10	> 90	> 7.00	> 7.00
C[C@H]1CC2(CCN(c3ccc(N4CCC(CN5CCN(c6ccc7c(c6)C(=O)N(C6CCC(=O)NC6=O)C7=O)CC5)CC4)nn3)CC2)CN1c1ccc(C#N)c(Cl)c1 (stereo partly shown) [compound 55]	< 10	> 90	> 7.00	> 7.00
C[C@H]1CC2(CCN(c3ccc(N4CCC(CN5Cc6cc7c(cc6C5)C(=O)N(C5CCC(=O)NC5=O)C7=O)CC4)nn3)CC2)CN1c1ccc(C#N)c(Cl)c1 (stereo partly shown) [compound 56]	< 10	> 90	> 7.00	> 7.00
C[C@H]1CC2(CCN(c3ccc(OC4CCN(C5CN(c6ccc7c(c6)C(=O)N(C6CCC(=O)NC6=O)C7=O)C5)CC4)cc3)CC2)CN1c1ccc(C#N)c(Cl)c1 (stereo partly shown) [compound 57]	< 1	> 90	> 8.00	> 8.00
C[C@H]1CC2(CCN(c3ccc(OC4CCN(C5CCN(c6ccc7c(c6)C(=O)N(C6CCC(=O)NC6=O)C7=O)CC5)CC4)cc3)CC2)CN1c1ccc(C#N)c(Cl)c1 (stereo partly shown) [compound 58]	< 10	> 90	> 7.00	> 7.00
C[C@H]1CC2(CCN(c3ccc(OC4CN(C5CN(c6ccc7c(c6)C(=O)N(C6CCC(=O)NC6=O)C7=O)C5)C4)cc3)CC2)CN1c1ccc(C#N)c(Cl)c1 (stereo partly shown) [compound 59]	< 1	> 90	> 8.00	> 8.00
C[C@H]1CC2(CCN(c3ccc(OC4CN(C5CCN(c6ccc7c(c6)C(=O)N(C6CCC(=O)NC6=O)C7=O)CC5)C4)cc3)CC2)CN1c1ccc(C#N)c(Cl)c1 (stereo partly shown) [compound 60]	< 1	> 90	> 8.00	> 8.00
C[C@H]1CC2(CCN(c3ccc(OC4CCN(C5CN(c6ccc7c(c6)C(=O)N(C6CCC(=O)NC6=O)C7=O)C5)CC4)cn3)CC2)CN1c1ccc(C#N)c(Cl)c1 (stereo partly drawn) [compound 61, 2-chloro-4-((3S)-8-(5-((1-(1-(2-(2,6-dioxopiperidin-3-yl)-1,3-dioxoisoindolin-5-yl)azetidin-3-yl)piperidin-4-yl)oxy)pyridin-2-yl)-3-methyl-2,8-diazaspiro-[4.5]decan-2-yl)benzonitrile]		> 90	> 8.00	> 8.00
C[C@H]1CC2(CCN(c3ccc(OC4CCN(C5CN(c6ccc7c(c6)C(=O)N(C6CCC(=O)NC6=O)C7=O)C5)CC4)nn3)CC2)CN1c1ccc(C#N)c(Cl)c1 (stereo partly shown) [compound 62]	< 1	> 90	> 8.00	> 8.00
C[C@H]1CC2(CCN(c3ccc(OC4CCN(C5CN(c6ccc7c(c6)C(=O)N(C6CCC(=O)NC6=O)C7=O)C5)CC4)nc3)CC2)CN1c1ccc(C#N)c(Cl)c1 (stereo partly shown) [compound 63]	< 1	> 90	> 8.00	> 8.00
C[C@H]1CC2(CCN(c3ccc(OC4CN(C5CN(c6ccc7c(c6)C(=O)N(C6CCC(=O)NC6=O)C7=O)C5)C4)cn3)CC2)CN1c1ccc(C#N)c(Cl)c1 (stereo partly shown) [compound 69]	< 1	> 90	> 8.00	> 8.00
C[C@H]1CC2(CCN(c3ccc(OC4CN(C5CCN(c6ccc7c(c6)C(=O)N(C6CCC(=O)NC6=O)C7=O)CC5)C4)cn3)CC2)CN1c1ccc(C#N)c(Cl)c1 (stereo partly shown) [compound 70]	< 100	50 to 70	> 6.00	> 6.00
C[C@H]1CC2(CCN(c3ccc(OC4CN(C5CN(c6ccc7c(c6)C(=O)N(C6CCC(=O)NC6=O)C7=O)C5)C4)nc3)CC2)CN1c1ccc(C#N)c(Cl)c1 (stereo partly shown) [compound 71]	< 100	50 to 70	> 6.00	> 6.00
C[C@H]1CC2(CCN(c3ccc(OC4CN(C5CCN(c6ccc7c(c6)C(=O)N(C6CCC(=O)NC6=O)C7=O)CC5)C4)nc3)CC2)CN1c1ccc(C#N)c(Cl)c1 (stereo partly shown) [compound 72]	< 100	50 to 70	> 6.00	> 6.00
C[C@H]1CC2(CCN(c3ccc(OC4CN(C5CN(c6ccc7c(c6)C(=O)N(C6CCC(=O)NC6=O)C7=O)C5)C4)nn3)CC2)CN1c1ccc(C#N)c(Cl)c1 (stereo partly shown) [compound 73]	< 100	50 to 70	> 6.00	> 6.00
C[C@H]1CC2(CCN(c3ccc(OC4CN(C5CCN(c6ccc7c(c6)C(=O)N(C6CCC(=O)NC6=O)C7=O)CC5)C4)nn3)CC2)CN1c1ccc(C#N)c(Cl)c1 (stereo partly shown) [compound 74]	< 100	50 to 70	> 6.00	> 6.00
C[C@H]1CC2(CCN(c3cnc(N4CCN(CC5CN(c6ccc7c(c6)C(=O)N(C6CCC(=O)NC6=O)C7=O)C5)CC4)nc3)CC2)CN1c1ccc(C#N)c(Cl)c1 (stereo partly shown) [compound 82]	< 1	> 90	> 8.00	> 8.00
C[C@H]1CC2(CCN(c3cnc(N4CCN(CC5CCN(c6ccc7c(c6)C(=O)N(C6CCC(=O)NC6=O)C7=O)CC5)CC4)nc3)CC2)CN1c1ccc(C#N)c(Cl)c1 (stereo partly shown) [compound 83]	< 1	> 90	> 8.00	> 8.00
C[C@H]1CC2(CCN(c3ccc(N4CCC(OC5CN(c6ccc7c(c6)C(=O)N(C6CCC(=O)NC6=O)C7=O)C5)CC4)cc3)CC2)CN1c1ccc(C#N)c(Cl)c1 (stereo partly shown) [compound 90]	< 1	> 90	> 8.00	> 8.00

Source: patent US20240190874A1, “SMALL MOLECULE DEGRADERS OF ANDROGEN RECEPTOR” (THE REGENTS OF THE UNIVERSITY OF MICHIGAN, priority 2021, published 2024)
